In ChEMBL document CHEMBL5055626 (J Med Chem, 2021):
Calls of active or inactive are those of the source. The rule behind the calls is not given here. Where a SMILES comes first, the peptide text is derived from it. Bridges are numbered along the chain shown (N, C = ends).

Tests used:
[1] = molecular target: Neuronal acetylcholine receptor; alpha3/beta4 (Rattus norvegicus, UniProt P04757+P12392); experiment: Antagonist activity at rat alpha3beta4 nAChR expressed in xenopus oocytes assessed as inhibition of Ach- induced response at -70 mV holding potential preincubated for 5 mins followed by Ach stimulation by voltage-clamp based electrophysiological method; type: cell-based, Oocyte
Chain of Neuronal acetylcholine receptor; alpha3/beta4 (P04757 whole entry): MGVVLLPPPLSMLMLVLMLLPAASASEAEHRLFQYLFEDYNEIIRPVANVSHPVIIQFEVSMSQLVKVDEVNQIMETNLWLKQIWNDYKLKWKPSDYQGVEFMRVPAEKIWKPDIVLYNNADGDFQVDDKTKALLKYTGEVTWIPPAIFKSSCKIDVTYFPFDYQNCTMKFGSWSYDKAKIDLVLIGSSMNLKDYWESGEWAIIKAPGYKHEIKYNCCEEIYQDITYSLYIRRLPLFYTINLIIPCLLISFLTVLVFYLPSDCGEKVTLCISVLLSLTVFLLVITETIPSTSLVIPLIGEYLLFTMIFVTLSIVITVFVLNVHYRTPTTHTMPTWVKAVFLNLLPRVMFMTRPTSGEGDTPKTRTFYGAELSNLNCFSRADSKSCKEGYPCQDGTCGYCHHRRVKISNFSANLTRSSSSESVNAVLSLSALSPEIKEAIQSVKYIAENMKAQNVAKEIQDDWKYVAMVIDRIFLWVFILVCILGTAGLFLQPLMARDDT
Chain of Neuronal acetylcholine receptor; alpha3/beta4 (P12392 whole entry): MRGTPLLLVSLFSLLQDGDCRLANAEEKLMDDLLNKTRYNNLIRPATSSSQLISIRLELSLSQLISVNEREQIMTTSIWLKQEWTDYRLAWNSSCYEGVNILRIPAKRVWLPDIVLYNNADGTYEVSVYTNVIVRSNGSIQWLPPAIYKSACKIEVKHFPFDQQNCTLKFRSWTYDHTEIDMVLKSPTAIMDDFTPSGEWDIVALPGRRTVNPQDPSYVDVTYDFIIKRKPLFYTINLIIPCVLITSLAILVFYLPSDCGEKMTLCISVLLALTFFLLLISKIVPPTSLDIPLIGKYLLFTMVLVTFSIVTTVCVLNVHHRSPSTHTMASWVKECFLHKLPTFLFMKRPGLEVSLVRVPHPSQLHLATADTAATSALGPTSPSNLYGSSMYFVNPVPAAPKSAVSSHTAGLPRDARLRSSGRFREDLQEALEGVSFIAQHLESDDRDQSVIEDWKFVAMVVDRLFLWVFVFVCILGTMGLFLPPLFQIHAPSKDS

[2] = molecular target: Neuronal acetylcholine receptor; alpha4/beta4 (Rattus norvegicus) (UniProt P09483+P12392); experiment: Antagonist activity at rat alpha4beta4 nAChR expressed in xenopus oocytes assessed as inhibition of Ach- induced response at 10 uM at -70 mV holding potential preincubated for 5 mins followed by Ach stimulation by voltage-clamp based electrophysiological method; type: cell-based; conditions: Oocyte
[3] = Antagonist activity at rat nAChR alpha7 Q141H mutant expressed in xenopus oocytes assessed as inhibition of Ach- induced response at -70 mV holding potential preincubated for 5 mins followed by Ach stimulation by voltage-clamp based electrophysiological method; type: cell-based; conditions: Oocyte
[4] = molecular target: Neuronal acetylcholine receptor; alpha2/beta2 (Rattus norvegicus, UniProt P12389+P12390); experiment: Antagonist activity at rat alpha2beta2 nAChR expressed in xenopus oocytes assessed as inhibition of Ach- induced response at -70 mV holding potential preincubated for 5 mins followed by Ach stimulation by voltage-clamp based electrophysiological method; type: cell-based, Oocyte
Chain of Neuronal acetylcholine receptor; alpha2/beta2 (P12389 whole entry): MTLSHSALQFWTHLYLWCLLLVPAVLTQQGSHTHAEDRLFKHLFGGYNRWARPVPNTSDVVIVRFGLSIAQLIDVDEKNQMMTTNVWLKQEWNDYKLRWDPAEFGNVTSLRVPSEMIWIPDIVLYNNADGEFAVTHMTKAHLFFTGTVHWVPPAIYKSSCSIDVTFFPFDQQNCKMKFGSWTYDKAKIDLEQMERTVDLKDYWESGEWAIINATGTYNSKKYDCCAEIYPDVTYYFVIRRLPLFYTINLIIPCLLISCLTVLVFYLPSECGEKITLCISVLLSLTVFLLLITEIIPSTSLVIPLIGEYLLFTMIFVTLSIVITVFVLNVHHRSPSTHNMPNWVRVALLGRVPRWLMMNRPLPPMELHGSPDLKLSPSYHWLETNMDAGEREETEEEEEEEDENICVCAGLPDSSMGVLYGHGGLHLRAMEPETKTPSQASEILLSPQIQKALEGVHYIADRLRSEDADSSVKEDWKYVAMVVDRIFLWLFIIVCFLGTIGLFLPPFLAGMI
Chain of Neuronal acetylcholine receptor; alpha2/beta2 (P12390 whole entry): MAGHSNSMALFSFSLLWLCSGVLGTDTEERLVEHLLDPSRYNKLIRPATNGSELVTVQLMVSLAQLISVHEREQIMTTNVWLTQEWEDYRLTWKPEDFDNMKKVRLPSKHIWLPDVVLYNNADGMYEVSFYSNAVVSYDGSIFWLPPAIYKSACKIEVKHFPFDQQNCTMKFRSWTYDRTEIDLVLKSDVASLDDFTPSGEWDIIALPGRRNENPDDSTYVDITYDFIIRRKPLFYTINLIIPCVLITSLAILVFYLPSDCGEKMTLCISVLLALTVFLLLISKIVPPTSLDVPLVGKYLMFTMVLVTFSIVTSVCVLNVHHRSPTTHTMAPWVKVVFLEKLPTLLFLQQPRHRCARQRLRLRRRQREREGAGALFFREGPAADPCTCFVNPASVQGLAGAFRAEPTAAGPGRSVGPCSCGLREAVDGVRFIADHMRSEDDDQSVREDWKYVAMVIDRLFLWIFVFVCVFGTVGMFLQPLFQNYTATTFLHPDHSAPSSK

[5] = Antagonist activity at rat nAChR alpha7 N184S mutant expressed in xenopus oocytes assessed as inhibition of Ach- induced response at -70 mV holding potential preincubated for 5 mins followed by Ach stimulation by voltage-clamp based electrophysiological method; type: cell-based; conditions: Oocyte
[6] = Antagonist activity at rat nAChR alpha7 R6K mutant expressed in xenopus oocytes assessed as inhibition of Ach- induced response at -70 mV holding potential preincubated for 5 mins followed by Ach stimulation by voltage-clamp based electrophysiological method; type: cell-based; conditions: Oocyte
[7] = Antagonist activity at rat nAChR alpha7 M177V mutant expressed in xenopus oocytes assessed as inhibition of Ach- induced response at -70 mV holding potential preincubated for 5 mins followed by Ach stimulation by voltage-clamp based electrophysiological method; type: cell-based; conditions: Oocyte
[8] = molecular target: Neuronal acetylcholine receptor; alpha2/beta4 (Rattus norvegicus, UniProt P12389+P12392); experiment: Antagonist activity at rat alpha2beta4 nAChR expressed in xenopus oocytes assessed as inhibition of Ach- induced response at -70 mV holding potential preincubated for 5 mins followed by Ach stimulation by voltage-clamp based electrophysiological method; type: cell-based, Oocyte
Chain of Neuronal acetylcholine receptor; alpha2/beta4 (P12389 whole entry): as the sequence (P12389 whole entry) above
Chain of Neuronal acetylcholine receptor; alpha2/beta4 (P12392 whole entry): as the sequence (P12392 whole entry) above

[9] = molecular target: Neuronal acetylcholine receptor; alpha4/beta4 (Rattus norvegicus, UniProt P09483+P12392); experiment: Antagonist activity at rat alpha4beta4 nAChR expressed in xenopus oocytes assessed as inhibition of Ach- induced response at -70 mV holding potential preincubated for 5 mins followed by Ach stimulation by voltage-clamp based electrophysiological method; type: cell-based, Oocyte
Chain of Neuronal acetylcholine receptor; alpha4/beta4 (P09483 whole entry): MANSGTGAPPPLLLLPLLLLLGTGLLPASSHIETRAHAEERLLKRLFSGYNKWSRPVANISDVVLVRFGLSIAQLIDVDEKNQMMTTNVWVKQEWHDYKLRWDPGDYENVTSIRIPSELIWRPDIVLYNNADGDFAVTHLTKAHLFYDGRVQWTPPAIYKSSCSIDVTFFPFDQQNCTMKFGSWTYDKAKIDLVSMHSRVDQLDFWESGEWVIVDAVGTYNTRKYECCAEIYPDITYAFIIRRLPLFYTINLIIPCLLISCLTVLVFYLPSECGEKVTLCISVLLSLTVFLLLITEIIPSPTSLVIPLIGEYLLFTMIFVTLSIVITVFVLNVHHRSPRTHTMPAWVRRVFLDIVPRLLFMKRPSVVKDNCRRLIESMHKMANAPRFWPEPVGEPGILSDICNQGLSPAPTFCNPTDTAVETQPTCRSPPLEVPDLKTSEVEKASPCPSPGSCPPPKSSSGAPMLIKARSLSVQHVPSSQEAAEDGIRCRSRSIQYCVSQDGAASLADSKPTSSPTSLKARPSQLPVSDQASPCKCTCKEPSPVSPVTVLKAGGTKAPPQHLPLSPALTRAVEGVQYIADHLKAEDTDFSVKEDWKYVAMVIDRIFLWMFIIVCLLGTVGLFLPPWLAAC
Chain of Neuronal acetylcholine receptor; alpha4/beta4 (P12392 whole entry): as the sequence (P12392 whole entry) above

[10] = Antagonist activity at human nAChR alpha7 H141Q/S184N/R186K triple mutant expressed in xenopus oocytes assessed as inhibition of Ach- induced response at -70 mV holding potential preincubated for 5 mins followed by Ach stimulation by voltage-clamp based electrophysiological method; type: cell-based; conditions: Oocyte
[11] = molecular target: Nicotinic acetylcholine receptor alpha9/alpha10 (Rattus norvegicus, UniProt P43144+Q9JLB5); experiment: Antagonist activity at rat alpha9alpha10 nAChR expressed in xenopus oocytes assessed as inhibition of Ach- induced response at -70 mV holding potential preincubated for 5 mins followed by Ach stimulation by voltage-clamp based electrophysiological method; type: cell-based, Oocyte
Chain of Nicotinic acetylcholine receptor alpha9/alpha10 (P43144 whole entry): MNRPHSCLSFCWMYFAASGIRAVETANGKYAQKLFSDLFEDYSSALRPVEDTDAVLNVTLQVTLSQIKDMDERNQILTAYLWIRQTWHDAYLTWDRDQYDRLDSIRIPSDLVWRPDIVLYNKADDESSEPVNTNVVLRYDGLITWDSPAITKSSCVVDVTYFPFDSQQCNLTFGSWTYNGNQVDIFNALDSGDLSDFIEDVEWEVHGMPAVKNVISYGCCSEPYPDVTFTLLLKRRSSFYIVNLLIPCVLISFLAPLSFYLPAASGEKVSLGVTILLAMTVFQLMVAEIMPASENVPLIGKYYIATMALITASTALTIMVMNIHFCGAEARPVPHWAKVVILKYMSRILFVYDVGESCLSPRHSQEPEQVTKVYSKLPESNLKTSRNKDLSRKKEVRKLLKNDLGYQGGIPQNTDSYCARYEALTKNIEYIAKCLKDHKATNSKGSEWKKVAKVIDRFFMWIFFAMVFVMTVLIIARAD
Chain of Nicotinic acetylcholine receptor alpha9/alpha10 (Q9JLB5 whole entry): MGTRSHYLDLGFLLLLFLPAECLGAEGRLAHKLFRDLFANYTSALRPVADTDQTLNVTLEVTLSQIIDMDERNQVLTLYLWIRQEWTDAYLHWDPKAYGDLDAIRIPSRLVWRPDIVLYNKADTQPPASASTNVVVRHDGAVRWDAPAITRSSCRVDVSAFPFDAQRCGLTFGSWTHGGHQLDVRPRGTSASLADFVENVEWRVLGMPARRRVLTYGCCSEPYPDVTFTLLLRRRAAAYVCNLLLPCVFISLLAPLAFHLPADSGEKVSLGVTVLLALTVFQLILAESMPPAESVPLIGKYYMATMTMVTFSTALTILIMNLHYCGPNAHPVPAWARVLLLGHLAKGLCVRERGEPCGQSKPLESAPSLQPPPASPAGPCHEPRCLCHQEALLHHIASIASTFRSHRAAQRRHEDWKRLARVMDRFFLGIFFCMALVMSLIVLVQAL

[12] = Antagonist activity at human nAChR alpha7 S184N/R186K double mutant expressed in xenopus oocytes assessed as inhibition of Ach- induced response at -70 mV holding potential preincubated for 5 mins followed by Ach stimulation by voltage-clamp based electrophysiological method; type: cell-based; conditions: Oocyte
[13] = molecular target: Nicotinic acetylcholine receptor alpha6/alpha3/beta4 (Homo sapiens, UniProt P30926+P32297+Q15825); experiment: Antagonist activity at rat alpha6/alpha3beta4 nAChR expressed in xenopus oocytes assessed as inhibition of Ach- induced response at -70 mV holding potential preincubated for 5 mins followed by Ach stimulation by voltage-clamp based electrophysiological method; type: cell-based, Oocyte
[14] = molecular target: Neuronal acetylcholine receptor subunit alpha-7 (Homo sapiens, UniProt P36544); type: cell-based, Oocyte
Chain of Neuronal acetylcholine receptor subunit alpha-7 (P36544 whole entry): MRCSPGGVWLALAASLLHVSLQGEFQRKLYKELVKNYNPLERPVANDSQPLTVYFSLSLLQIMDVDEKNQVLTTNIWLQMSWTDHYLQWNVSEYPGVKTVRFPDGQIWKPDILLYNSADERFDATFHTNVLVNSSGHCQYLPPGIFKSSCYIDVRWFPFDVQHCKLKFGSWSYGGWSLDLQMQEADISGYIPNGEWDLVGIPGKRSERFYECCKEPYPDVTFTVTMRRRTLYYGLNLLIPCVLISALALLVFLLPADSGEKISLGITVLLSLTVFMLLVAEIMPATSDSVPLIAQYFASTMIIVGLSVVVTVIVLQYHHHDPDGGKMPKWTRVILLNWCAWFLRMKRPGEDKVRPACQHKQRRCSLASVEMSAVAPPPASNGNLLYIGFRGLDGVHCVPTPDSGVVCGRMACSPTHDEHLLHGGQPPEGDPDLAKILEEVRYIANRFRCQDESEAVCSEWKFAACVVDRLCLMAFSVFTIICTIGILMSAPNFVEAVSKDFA

[15] = molecular target: Neuronal acetylcholine receptor; alpha4/beta2 (Rattus norvegicus, UniProt P09483+P12390); experiment: Antagonist activity at rat alpha4beta2 nAChR expressed in xenopus oocytes assessed as inhibition of Ach- induced response at -70 mV holding potential preincubated for 5 mins followed by Ach stimulation by voltage-clamp based electrophysiological method; type: cell-based, Oocyte
Chain of Neuronal acetylcholine receptor; alpha4/beta2 (P09483 whole entry): as the sequence (P09483 whole entry) above
Chain of Neuronal acetylcholine receptor; alpha4/beta2 (P12390 whole entry): as the sequence (P12390 whole entry) above

[16] = molecular target: Neuronal acetylcholine receptor; alpha4/beta2 (Rattus norvegicus) (UniProt P09483+P12390); experiment: Antagonist activity at rat alpha4beta2 nAChR expressed in xenopus oocytes assessed as inhibition of Ach- induced response at 10 uM at -70 mV holding potential preincubated for 5 mins followed by Ach stimulation by voltage-clamp based electrophysiological method; type: cell-based; conditions: Oocyte
[17] = molecular target: Neuronal acetylcholine receptor; alpha3/beta4 (Rattus norvegicus) (UniProt P04757+P12392); experiment: Antagonist activity at rat alpha3beta4 nAChR expressed in xenopus oocytes assessed as inhibition of Ach- induced response at 10 uM at -70 mV holding potential preincubated for 5 mins followed by Ach stimulation by voltage-clamp based electrophysiological method; type: cell-based; conditions: Oocyte
[18] = molecular target: Nicotinic acetylcholine receptor alpha9/alpha10 (Rattus norvegicus) (UniProt P43144+Q9JLB5); experiment: Antagonist activity at rat alpha9alpha10 nAChR expressed in xenopus oocytes assessed as inhibition of Ach- induced response at 10 uM at -70 mV holding potential preincubated for 5 mins followed by Ach stimulation by voltage-clamp based electrophysiological method; type: cell-based; conditions: Oocyte
[19] = Antagonist activity at rat alpha6/ alpha3beta2beta3 nAChR expressed in xenopus oocytes assessed as inhibition of Ach- induced response at -70 mV holding potential preincubated for 5 mins followed by Ach stimulation by voltage-clamp based electrophysiological method; type: cell-based; conditions: Oocyte
[20] = molecular target: Neuronal acetylcholine receptor; alpha2/beta4 (Rattus norvegicus) (UniProt P12389+P12392); experiment: Antagonist activity at rat alpha2beta4 nAChR expressed in xenopus oocytes assessed as inhibition of Ach- induced response at 10 uM at -70 mV holding potential preincubated for 5 mins followed by Ach stimulation by voltage-clamp based electrophysiological method; type: cell-based; conditions: Oocyte
[21] = molecular target: Neuronal acetylcholine receptor; alpha3/beta2 (Rattus norvegicus, UniProt P04757+P12390); experiment: Antagonist activity at rat alpha3beta2 nAChR expressed in xenopus oocytes assessed as inhibition of Ach- induced response at -70 mV holding potential preincubated for 5 mins followed by Ach stimulation by voltage-clamp based electrophysiological method; type: cell-based, Oocyte
Chain of Neuronal acetylcholine receptor; alpha3/beta2 (P04757 whole entry): as the sequence (P04757 whole entry) above
Chain of Neuronal acetylcholine receptor; alpha3/beta2 (P12390 whole entry): as the sequence (P12390 whole entry) above

[22] = Antagonist activity at rat nAChR alpha7 A112S mutant expressed in xenopus oocytes assessed as inhibition of Ach- induced response at -70 mV holding potential preincubated for 5 mins followed by Ach stimulation by voltage-clamp based electrophysiological method; type: cell-based; conditions: Oocyte
[23] = Antagonist activity at rat nAChR alpha7 N77T mutant expressed in xenopus oocytes assessed as inhibition of Ach- induced response at -70 mV holding potential preincubated for 5 mins followed by Ach stimulation by voltage-clamp based electrophysiological method; type: cell-based; conditions: Oocyte

## C[C@@H]1NC(=O)[C@@H]2CSSC[C@H](NC(=O)CN)C(=O)N[C@@H](CSSC[C@@H](C(N)=O)NC(=O)[C@H](Cc3cnc[nH]3)NC(=O)[C@H](CCC(=O)O)NC(=O)[C@H](Cc3cnc[nH]3)NC1=O)C(=O)N[C@@H](CO)C(=O)N[C@@H](CC(N)=O)C(=O)N1CCC[C@H]1C(=O)N1CCC[C@H]1C(=O)N2 (H-GCCSNPPCAHEHC-NH2; disulfide 2-8, 3-13)
[1]
  IC50: > 10000 nM
[2]
  inhibition: inactive
[3]
  IC50: 300 nM
[4]
  IC50: > 10000 nM
[5]
  IC50: 710 nM
[6]
  IC50: 170 nM
[7]
  IC50: 160 nM
[8]
  IC50: > 10000 nM
[9]
  IC50: > 10000 nM
[10]
  IC50: 220 nM
[11]
  IC50: > 10000 nM
[12]
  IC50: 530 nM
[13]
  IC50: 1410 nM
[14]
  IC50: 1570 nM
[15]
  IC50: > 10000 nM
[16]
  inhibition: inactive
[17]
  inhibition: inactive
[18]
  inhibition: inactive
[19]
  IC50: 150 nM
[20]
  inhibition: inactive
[21]
  IC50: 350 nM
[22]
  IC50: 160 nM
[23]
  IC50: 160 nM
